Experimental data published in PubChem BioAssay AID743022 (Sanford-Burnham Center for Chemical Genomics, 2013).
Values joined by “and” are separate entries in the source; they are usually repeats but may differ in a detail not shown here. Identical values can stand only once. Active and inactive are the calls of the source.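 The calls were made as follows: active = compounds whose mean IC50 for blocking the worm GFP/RFP stress reporter is 5 µM or lower; inactive = the rest.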

Tested on: C. elegans VP596 gst-4::GFP/RFP ratio, acrylamide-induced, 24 h
Experiment: analog inhibition of acrylamide-induced gst-4::GFP reporter, SAR follow-up, SKN-1 inhibitor project, whole organism, GFP/RFP fluorescence ratio, round 3 (AID 743022)

Compound | IC50
CCCc1cc(-c2nc(-c3ccc(NS(C)(=O)=O)cc3)cs2)ccn1 | > 64 µM (inactive)
FC(F)(F)c1ccc(-c2csc(-c3ccncc3)n2)cc1 | 3.9 µM
COc1ccc(-c2csc(-c3cccnc3)n2)cc1 | 13.4 µM (inactive)
COc1ccc(-c2csc(-c3ccccc3)n2)cc1 | 28.8 µM (inactive)
Cc1sc(-c2ccncc2)nc1-c1ccc(Cl)cc1 | 3.24 µM
Cc1ccc(-c2csc(-c3ccccc3)n2)cc1 | > 64 µM (inactive)
N#Cc1ccc(-c2csc(-c3ccncc3)n2)cc1 | 13.5 µM (inactive)
c1ccc(-c2nc(-c3cccnc3)cs2)cc1 | > 64 µM (inactive)
Cc1cccc(-c2csc(-c3ccncc3)n2)c1 | 30.1 µM (inactive)
Clc1ccc(-c2csc(-c3ccccn3)n2)cc1 | 1.59 µM and 0.869 µM
COc1ccc(-c2nc(-c3ccncc3)sc2C)cc1 | 51.2 µM (inactive)
Clc1ccc(-c2csc(-c3ccncc3)n2)cc1 | 1.34 µM and 1.92 µM
COc1ccccc1-c1csc(-c2ccncc2)n1 | > 64 µM (inactive)
Cc1sc(C2CCNCC2)nc1-c1ccccc1 | > 64 µM (inactive)
Clc1cccc(-c2csc(-c3ccncc3)n2)c1 | 1.49 µM
COc1ccc(-c2csc(-c3ccccn3)n2)cc1 | 17.9 µM (inactive)
Cc1csc(-c2ccncc2)n1 | > 64 µM (inactive)
Clc1ccc(-c2csc(-c3ccccc3)n2)cc1 | 2.1 µM
COC(=O)c1ccc(-c2csc(-c3ccncc3)n2)cc1 | > 64 µM (inactive)
Fc1ccc(-c2csc(-c3ccccc3)n2)cc1 | 23.3 µM (inactive)
Clc1ccc(-c2csc(-c3ccncc3)n2)cc1Cl | 0.276 µM and 0.884 µM
Cc1ccc(-c2csc(-c3ccncc3)n2)cc1 | 18.2 µM (inactive)
Cc1ccc(-c2csc(C3CCNCC3)n2)cc1 | > 64 µM (inactive)
c1ccc(-c2csc(-c3ccncc3)n2)cc1 | 2.5 µM

Compound | IC50
Clc1ccc(-c2csc(-c3cccnc3)n2)cc1 | 1.67 µM and 0.379 µM
c1ccc(-c2csc(-c3cccnc3)n2)cc1 | 17.7 µM (inactive)
c1cc(-c2nc(C3CC3)cs2)ccn1 | > 64 µM (inactive)
c1cc(-c2nc(-c3nccs3)cs2)ccn1 | 21.5 µM (inactive)
Cc1ccc(-c2nc(-c3ccncc3)sc2C)cc1 | > 64 µM (inactive)
Cc1sc(-c2ccncc2)nc1-c1ccccc1 | 11.3 µM (inactive)
Fc1ccc(-c2csc(-c3cccnc3)n2)cc1 | 6.94 µM (inactive)
Cc1ccc(-c2csc(-c3ccccn3)n2)cc1 | 27.4 µM (inactive)
c1ccc(-c2csc(-c3ccccn3)n2)cc1 | 29 µM (inactive)
COc1ccc(-c2csc(C3CCNCC3)n2)cc1 | > 64 µM (inactive)
Clc1ccc(-c2csc(C3CCNCC3)n2)cc1 | > 64 µM (inactive)
Clc1ccc(-c2csc(-c3ccncc3)n2)c(Cl)c1 | 1.1 µM
Cc1ccc(-c2csc(-c3cccnc3)n2)cc1 | > 64 µM (inactive)
COc1cccc(-c2csc(-c3ccncc3)n2)c1 | 26.2 µM (inactive)
Cc1ccccc1-c1csc(-c2ccncc2)n1 | 14.6 µM (inactive)
Fc1ccc(-c2csc(-c3ccncc3)n2)cc1 | 2.53 µM
CC(C)(C)c1csc(-c2ccncc2)n1 | > 64 µM (inactive)
CCCc1cc(-c2nc(-c3ccc(C)cc3)cs2)ccn1 | 34.1 µM (inactive)
COc1ccc(-c2csc(-c3ccncc3)n2)cc1 | 16.6 µM (inactive)
Fc1ccc(-c2csc(-c3ccccn3)n2)cc1 | 3.18 µM
Fc1ccc(-c2csc(C3CCNCC3)n2)cc1 | > 64 µM (inactive)
c1ccc(-c2csc(C3CCNCC3)n2)cc1 | > 64 µM (inactive)
Clc1ccccc1-c1csc(-c2ccncc2)n1 | 3.63 µM
Cc1sc(-c2ccncc2)nc1-c1ccc(F)cc1 | 4.77 µM
